Tested on: M. tuberculosis
Test: Extracellular activity against M. tuberculosis in cholesterol media (Alamar Blue reduction assay)
Format: cell-based, Mycobacterium tuberculosis
Settings: Mycobacterium tuberculosis, 240 h, 7H12-Cholesterol media, 10 days; read-out: Cholesterol broth: alamar blue--EC50

| Structure (SMILES) | EC50 [µM] |
| --- | --- |
| Cc1nonc1CC(=O)N1CCC(c2nc(-c3ccc(OC(F)(F)F)cc3)no2)CC1 [Compound 102, 2-(4-methyl-1,2,5-oxadiazol-3-yl)-1-(4-(3-(4-(trifluoromethoxy)phenyl)-1,2,4-oxadiazol-5-yl)piperidin-1-yl)ethan-1-one] | 0.167 |
| Cn1ncnc1CC(=O)N1C[C@H]2C[C@@H](C1)[C@@H]2c1nc(-c2ccc(Cl)cc2)no1 [Compound 220, 1-((1R,5S,6r)-6-(3-(4-chlorophenyl)-1,2,4-oxadiazol-5-yl)-3-azabicyclo[3.1.1]heptan-3-yl)-2-(1-methyl-1H-1,2,4-triazol-5-yl)ethan-1-one] | 0.14 |
| Cc1nonc1CC(=O)N1CCC(c2nc(C3CCC4(CC3)OCCO4)no2)CC1 [Compound 67, 1-(4-(3-(1,4-dioxaspiro[4.5]decan-8-yl)-1,2,4-oxadiazol-5-yl)piperidin-1-yl)-2-(4-methyl-1,2,5-oxadiazol-3-yl)ethan-1-one] | > 10 |
| Cc1noc(C2CCN(C(=O)Cc3nonc3C)CC2)n1 [Compound 82, 1-(4-(3-methyl-1,2,4-oxadiazol-5-yl)piperidin-1-yl)-2-(4-methyl-1,2,5-oxadiazol-3-yl)ethan-1-one] | > 10 |
| Cc1nonc1CC(=O)N1CCC2(CC1)CC(c1nc(-c3ccc(F)c(F)c3)no1)C2 [Compound 232, 1-(2-(3-(3,4-difluorophenyl)-1,2,4-oxadiazol-5-yl)-7-azaspiro[3.5]nonan-7-yl)-2-(4-methyl-1,2,5-oxadiazol-3-yl)ethan-1-one] | 0.257 |
| Cc1nonc1CC(=O)N1CCC(c2nc(-c3ccc(F)cc3)co2)CC1 [Compound 134, 1-(4-(4-(4-fluorophenyl)oxazol-2-yl)piperidin-1-yl)-2-(4-methyl-1,2,5-oxadiazol-3-yl)ethan-1-one] | 1.43 |
| Cc1noc(CC(=O)N2CCC(c3noc(-c4ccc(F)cc4)n3)CC2)n1 [Compound 53, 1-(4-(5-(4-fluorophenyl)-1,2,4-oxadiazol-3-yl)piperidin-1-yl)-2-(3-methyl-1,2,4-oxadiazol-5-yl)ethan-1-one] | > 10 |
| Cc1nonc1CC(=O)N1CCC(c2nc(-c3ccccc3F)no2)CC1 [Compound 146, 1-(4-(3-(2-fluorophenyl)-1,2,4-oxadiazol-5-yl)piperidin-1-yl)-2-(4-methyl-1,2,5-oxadiazol-3-yl)ethan-1-one] | 1.36 |
| Cc1nonc1CC(=O)N1CCC(c2cnc(-c3ccc(F)cc3)nc2)CC1 [Compound 252, 1-(4-(2-(4-fluorophenyl)pyrimidin-5-yl)piperidin-1-yl)-2-(4-methyl-1,2,5-oxadiazol-3-yl)ethan-1-one] | 2.91 |
| Cn1ncnc1CC(=O)N1CCC(n2nnc(-c3ccc(F)cc3)n2)CC1 [Compound 187, 1-(4-(5-(4-fluorophenyl)-2H-tetrazol-2-yl)piperidin-1-yl)-2-(1-methyl-1H-1,2,4-triazol-5-yl)ethan-1-one] | 3.07 |
| Cc1noc(CC(=O)N2CCC(c3nc(C4CCC(F)(F)C4)no3)CC2)n1 (stereo not shown) [Compound 40, 1-(4-(3-(3,3-difluorocyclopentyl)-1,2,4-oxadiazol-5-yl)piperidin-1-yl)-2-(3-methyl-1,2,4-oxadiazol-5-yl)ethan-1-one] | > 25 |
| Cc1noc(CC(=O)N2CCC3(CC2)CC(c2nc(-c4ccc(Cl)c(Cl)c4)no2)C3)n1 [Compound 226, 1-(2-(3-(3,4-dichlorophenyl)-1,2,4-oxadiazol-5-yl)-7-azaspiro[3.5]nonan-7-yl)-2-(3-methyl-1,2,4-oxadiazol-5-yl)ethan-1-one] | 0.109 |
| Cc1nonc1CC(=O)N1CCC(O)(c2nc(C3CCC(F)(F)CC3)no2)CC1 [Compound 111, 1-(4-(3-(4,4-difluorocyclohexyl)-1,2,4-oxadiazol-5-yl)-4-hydroxypiperidin-1-yl)-2-(4-methyl-1,2,5-oxadiazol-3-yl)ethan-1-one] | > 10 |
| Cc1noc(CC(=O)N2CCC(c3nc(C4(C)CCCCC4)no3)CC2)n1 [Compound 27, 2-(3-methyl-1,2,4-oxadiazol-5-yl)-1-(4-(3-(1-methylcyclohexyl)-1,2,4-oxadiazol-5-yl)piperidin-1-yl)ethan-1-one] | > 25 |
| Cc1nonc1CC(=O)N1CCC(c2nc(C3CCC(C)(C)C3)no2)CC1 (stereo not shown) [Compound 87, 1-(4-(3-(3,3-dimethylcyclopentyl)-1,2,4-oxadiazol-5-yl)piperidin-1-yl)-2-(4-methyl-1,2,5-oxadiazol-3-yl)ethan-1-one] | 0.249 |
| Cc1nonc1CC(=O)N1CCC(n2nnc(C3CCCCC3)n2)CC1 [Compound 74, 1-(4-(5-cyclohexyl-2H-tetrazol-2-yl)piperidin-1-yl)-2-(4-methyl-1,2,5-oxadiazol-3-yl)ethan-1-one] | 2.07 |
| Cc1noc(CC(=O)N2CCC(c3nc(-c4ccc(OC(F)(F)F)cc4)no3)CC2)n1 [Compound 39, 2-(3-methyl-1,2,4-oxadiazol-5-yl)-1-(4-(3-(4-(trifluoromethoxy)phenyl)-1,2,4-oxadiazol-5-yl)piperidin-1-yl)ethan-1-one] | 0.657 |
| Cc1noc(CC(=O)N2CCC3(CCC3c3nc(-c4ccc(Cl)c(Cl)c4)no3)CC2)n1 (stereo not shown) [Compound 239, 1-(1-(3-(3,4-dichlorophenyl)-1,2,4-oxadiazol-5-yl)-7-azaspiro[3.5]nonan-7-yl)-2-(3-methyl-1,2,4-oxadiazol-5-yl)ethan-1-one] | > 25 |
| Cn1ncnc1CC(=O)N1CCC(c2nc(-c3ccc(C(F)F)cc3)no2)CC1 [Compound 172, 1-(4-(3-(4-(difluoromethyl)phenyl)-1,2,4-oxadiazol-5-yl)piperidin-1-yl)-2-(1-methyl-1H-1,2,4-triazol-5-yl)ethan-1-one] | 2.07 |
| Cc1nonc1CC(=O)N1CCC(c2nc(C3CC3)no2)CC1 [Compound 61, 1-(4-(3-cyclopropyl-1,2,4-oxadiazol-5-yl)piperidin-1-yl)-2-(4-methyl-1,2,5-oxadiazol-3-yl)ethan-1-one] | > 10 |
| Cc1nonc1CC(=O)N1CCC(c2noc(C34CCC(CC3)C4)n2)CC1 [Compound 77, 1-(4-(5-(bicyclo[2.2.1]heptan-1-yl)-1,2,4-oxadiazol-3-yl)piperidin-1-yl)-2-(4-methyl-1,2,5-oxadiazol-3-yl)ethan-1-one] | > 25 |
| Cn1ncnc1CC(=O)N1CC2CC(C1)C2c1nc(-c2ccc(Cl)c(Cl)c2)no1 (stereo not shown) [Compound 216, 1-(6-(3-(3,4-dichlorophenyl)-1,2,4-oxadiazol-5-yl)-3-azabicyclo[3.1.1]heptan-3-yl)-2-(1-methyl-1H-1,2,4-triazol-5-yl)ethan-1-one] | > 10 |
| Cc1nonc1CC(=O)N1CCC(c2nc(-c3ccc(Cl)c(Cl)c3)no2)CC1 [Compound 95, 1-(4-(3-(3,4-dichlorophenyl)-1,2,4-oxadiazol-5-yl)piperidin-1-yl)-2-(4-methyl-1,2,5-oxadiazol-3-yl)ethan-1-one] | 0.0644 |
| Cn1ncnc1CC(=O)N1C[C@H]2C[C@@H](C1)[C@H]2c1nc(-c2ccc(Cl)cc2)no1 [Compound 219, 1-((1R,5S,6s)-6-(3-(4-chlorophenyl)-1,2,4-oxadiazol-5-yl)-3-azabicyclo[3.1.1]heptan-3-yl)-2-(1-methyl-1H-1,2,4-triazol-5-yl)ethan-1-one] | > 10 |
| Cc1nonc1CC(=O)N1CCC(c2nc(C3CCC4(CC3)CC4)no2)CC1 [Compound 68, 2-(4-methyl-1,2,5-oxadiazol-3-yl)-1-(4-(3-(spiro[2.5]octan-6-yl)-1,2,4-oxadiazol-5-yl)piperidin-1-yl)ethan-1-one] | 1.86 |

Reference: patent publication US20260048047A1, “SMALL-MOLECULE ACTIVATORS OF MYCOBACTERIUM TUBERCULOSIS ADENYLYL CYCLASE” (priority 2022, published 2026)
